# From DBAASP
# Assays:
# Experiment in all cases: ≥ marks a high value that may be exact or a test limit, other limits are often not marked, values filed in µg/mL are converted to µM
# [1] = test system: Escherichia coli ATCC 2592
# [2] = test system: Candida albicans ATCC 10231
# [3] = test system: Pseudomonas aeruginosa ATCC 10145
# [4] = test system: Staphylococcus aureus ATCC 33591
# [5] = test system: Cryptococcus neoformans ATCC 32045
# [6] = test system: Staphylococcus aureus ATCC 43300
# [7] = test system: Klebsiella pneumoniae ATCC 700603
# [8] = test system: Candida albicans ATCC 90028
# [9] = test system: Cryptococcus neoformans ATCC 208821
# [10] = test system: Acinetobacter baumannii ATCC 19606
# [11] = test system: Escherichia coli ATCC 25922
# [12] = test system: Pseudomonas aeruginosa ATCC 27853
# [13] = test system: Candida albicans ATCC 2002
# Escherichia coli ML-35p = test system: Escherichia coli ML-35p
# [14] = test system: Staphylococcus aureus ATCC 25923
# Bacillus subtilis = test system: Bacillus subtilis
# Escherichia coli JW0013 = test system: Escherichia coli JW0013
SMILES,MIC [1],MIC [2],MIC [3],MIC [4],MIC [5],MIC [6],MIC [7],MIC [8],MIC [9],MIC [10],MIC [11],MIC [12],also measured
C[C@H](NC(=O)[C@H](CCCCN)NC(=O)[C@H](Cc1ccccc1)NC(=O)[C@H](C)NC(=O)[C@H](CCCCN)NC(=O)[C@H](Cc1ccccc1)NC(=O)[C@H](C)NC(=O)[C@H](CCCCN)NC(=O)[C@H](Cc1ccccc1)NC(=O)[C@H](C)NC(=O)[C@H](CCCCN)NC(=O)[C@H](Cc1ccccc1)NC(=O)[C@H](C)NC(=O)[C@H](CCCCN)NC(=O)[C@H](Cc1ccccc1)NC(=O)[C@H](C)NC(=O)[C@H](CCCCN)NC(=O)[C@H](Cc1ccccc1)NC(=O)[C@H](C)NC(=O)[C@H](CCCCN)NC(=O)[C@@H](N)Cc1ccccc1)C(=O)O [FKAFKAFKAFKAFKAFKAFKA],9.26 µM,145 µM,13.1 µM,≥ 205 µM,2.32 µM,–,–,–,–,–,–,–,–
C[C@H](NC(=O)[C@H](Cc1ccccc1)NC(=O)[C@H](CCCCN)NC(=O)[C@H](CCCCN)NC(=O)[C@H](C)NC(=O)[C@H](Cc1ccccc1)NC(=O)[C@H](CCCCN)NC(=O)[C@H](CCCCN)NC(=O)[C@H](C)NC(=O)[C@H](Cc1ccccc1)NC(=O)[C@H](CCCCN)NC(=O)[C@H](CCCCN)NC(=O)[C@H](C)NC(=O)[C@H](Cc1ccccc1)NC(=O)[C@H](CCCCN)NC(=O)[C@H](CCCCN)NC(=O)[C@H](C)NC(=O)[C@H](Cc1ccccc1)NC(=O)[C@H](CCCCN)NC(=O)[C@H](CCCCN)NC(=O)[C@H](C)NC(=O)[C@H](Cc1ccccc1)NC(=O)[C@@H](N)CCCCN)C(=O)N[C@@H](CCCCN)C(=O)O [KFAKKFAKKFAKKFAKKFAKKFAK],3.95 µM,34.9 µM,5.58 µM,≥ 61.7 µM,7.9 µM,–,–,–,–,–,–,–,–
C[C@H](NC(=O)[C@H](Cc1ccccc1)NC(=O)[C@H](CCCCN)NC(=O)[C@H](CCCCN)NC(=O)[C@H](C)NC(=O)[C@H](Cc1ccccc1)NC(=O)[C@@H](N)CCCCN)C(=O)N[C@@H](CCCCN)C(=O)O [KFAKKFAK],≥ 258 µM,> 258 µM,≥ 258 µM,≥ 258 µM,≥ 258 µM,–,–,–,–,–,–,–,–
CC(C)C[C@H](NC(=O)[C@H](CCCCN)NC(=O)[C@H](CC(C)C)NC(=O)[C@H](CCCCN)NC(=O)[C@H](CC(C)C)NC(=O)[C@H](CCCCN)NC(=O)[C@H](CC(C)C)NC(=O)[C@H](CCCCN)NC(=O)[C@H](CC(C)C)NC(=O)[C@H](CCCCN)NC(=O)[C@H](CC(C)C)NC(=O)[C@H](CCCCN)NC(=O)[C@@H](N)CC(C)C)C(=O)N[C@@H](CCCCN)C(=O)O [LKLKLKLKLKLKLK],30.9 µM,207 µM,≥ 73.2 µM,≥ 207 µM,1.66 µM,–,–,–,–,–,–,–,–
CC(C)C[C@H](NC(=O)[C@H](CCCN=C(N)N)NC(=O)[C@H](CC(C)C)NC(=O)[C@H](CCCN=C(N)N)NC(=O)[C@H](CC(C)C)NC(=O)[C@H](CCCN=C(N)N)NC(=O)[C@H](CC(C)C)NC(=O)[C@H](CCCN=C(N)N)NC(=O)[C@H](CC(C)C)NC(=O)[C@H](CCCN=C(N)N)NC(=O)[C@H](CC(C)C)NC(=O)[C@H](CCCN=C(N)N)NC(=O)[C@H](CC(C)C)NC(=O)[C@H](CCCN=C(N)N)NC(=O)[C@H](CC(C)C)NC(=O)[C@H](CCCN=C(N)N)NC(=O)[C@@H](N)CC(C)C)C(=O)N[C@@H](CCCN=C(N)N)C(=O)O [LRLRLRLRLRLRLRLRLR],≥ 51.2 µM,145 µM,≥ 102 µM,≥ 72.4 µM,≥ 36 µM,–,–,–,–,–,–,–,–
CC[C@H](C)[C@H](NC(=O)[C@H](CCCN=C(N)N)NC(=O)[C@H](CCCN=C(N)N)NC(=O)[C@@H]1CCCN1C(=O)[C@@H]1CCCN1C(=O)[C@H](CCCN=C(N)N)NC(=O)[C@@H]1CCCN1C(=O)[C@H](CCCN=C(N)N)NC(=O)[C@@H]1CCCN1C(=O)[C@H](CC(C)C)NC(=O)[C@H](Cc1ccc(O)cc1)NC(=O)[C@H](Cc1cnc[nH]1)NC(=O)[C@H](CCCN=C(N)N)NC(=O)[C@H](CCCCN)NC(=O)[C@H](CC(=O)O)NC(=O)[C@@H](N)C(C)C)C(=O)N[C@@H](Cc1ccc(O)cc1)C(=O)N[C@@H](CC(N)=O)C(=O)N[C@@H](CCCN=C(N)N)C(N)=O [VDKRHYLPRPRPPRRIYNR],–,–,–,–,–,–,–,–,–,–,–,–,MIC (Escherichia coli JW0013): 0.683 µM

# More lines, main results first:
MIC [1],MIC [2],MIC [3],MIC [4],MIC [5],MIC [6],MIC [7],MIC [8],MIC [9],MIC [10],MIC [11],MIC [12],SMILES,also measured
–,–,–,–,–,18.9 µM,> 18.9 µM,18.9 µM,4.72 µM,> 18.9 µM,> 18.9 µM,> 18.9 µM,NC(N)=NCCC[C@H](NC(=O)[C@H](CCCN=C(N)N)NC(=O)[C@H](CS)NC(=O)[C@H](CCCN=C(N)N)NC(=O)[C@H](Cc1cnc[nH]1)NC(=O)[C@H](CO)NC(=O)[C@H](CCCN=C(N)N)NC(=O)[C@H](CS)NC(=O)[C@H](CS)NC(=O)[C@H](CCCN=C(N)N)NC(=O)[C@H](Cc1cnc[nH]1)NC(=O)[C@H](Cc1cnc[nH]1)NC(=O)[C@@H](N)CO)C(=O)O [SHHRCCRSHRCRR],–
–,–,–,–,–,> 18 µM,> 18 µM,18 µM,18 µM,> 18 µM,> 18 µM,> 18 µM,CC(C)C[C@H](NC(=O)[C@H](CCCN=C(N)N)NC(=O)[C@@H]1CCCN1C(=O)[C@H](CCCN=C(N)N)NC(=O)[C@H](Cc1cnc[nH]1)NC(=O)[C@H](Cc1cnc[nH]1)NC(=O)[C@@H](N)CO)C(=O)N[C@@H](Cc1ccccc1)C(=O)N[C@@H](Cc1cnc[nH]1)C(=O)N[C@@H](CCCN=C(N)N)C(=O)N[C@@H](Cc1cnc[nH]1)C(=O)N[C@@H](CCCN=C(N)N)C(=O)N[C@@H](Cc1cnc[nH]1)C(=O)O [SHHRPRLFHRHRH],–
–,–,–,–,–,> 17.9 µM,> 17.9 µM,17.9 µM,17.9 µM,> 17.9 µM,> 17.9 µM,> 17.9 µM,CC(C)C[C@H](NC(=O)[C@H](CCCN=C(N)N)NC(=O)[C@@H]1CCCN1C(=O)[C@H](CCCN=C(N)N)NC(=O)[C@H](Cc1cnc[nH]1)NC(=O)[C@H](Cc1cnc[nH]1)NC(=O)[C@@H](N)CO)C(=O)N[C@@H](Cc1ccccc1)C(=O)N[C@@H](Cc1cnc[nH]1)C(=O)N[C@@H](CCCN=C(N)N)C(=O)N[C@@H](CCCN=C(N)N)C(=O)N[C@@H](CCCN=C(N)N)C(=O)N[C@@H](Cc1cnc[nH]1)C(=O)O [SHHRPRLFHRRRH],–
–,–,–,–,–,3.57 µM,–,–,–,–,–,–,CC[C@H](C)[C@H](NC(=O)[C@H](C)NC(=O)[C@@H](NC(=O)[C@@H](NC(=O)[C@H](CCCCN)NC(=O)[C@@H](NC(=O)[C@H](CCCCN)NC(=O)[C@H](CC(=O)O)NC(=O)[C@H](CCCN=C(N)N)NC(=O)[C@@H](NC(=O)[C@@H](N)CO)[C@@H](C)CC)[C@@H](C)CC)[C@@H](C)O)[C@@H](C)CC)C(=O)N[C@@H](CC(=O)O)C(=O)N[C@@H](CC(C)C)C(=O)N[C@@H](C)C(=O)N[C@@H](CCCCN)C(=O)N[C@@H](CO)C(=O)N[C@@H](C)C(=O)NCC(=O)N[C@H](C(=O)NCC(=O)N[C@H](C(=O)N[C@@H](CC(C)C)C(=O)N[C@@H](CCCCN)C(=O)N[C@H](C(=O)N[C@@H](CC(C)C)C(=O)N[C@H](C(=O)N[C@H]1CSSC[C@@H](C(=O)O)NC(=O)[C@H](CO)NC(=O)[C@H](CCCCN)NC(=O)[C@H](CC(N)=O)NC(=O)[C@H](CC(C)C)NC(=O)[C@H](CCCCN)NC1=O)[C@@H](C)CC)[C@@H](C)O)C(C)C)[C@@H](C)O [SIRDKIKTIAIDLAKSAGTGVLKTLICKLNKSC],MIC [13]: 5.35 µM; MIC (Escherichia coli ML-35p): 7.14 µM; MIC [14]: 4.28 µM; MIC (Bacillus subtilis): 5.35 µM
